Reference: article PMC5218480 (PLoS ONE, 2017)

Test system: MV-4-11 cells
Assay: Gene expression microarray analysis (Affymetrix PrimeView) and GSEA
Assay type: cell-based, human
Set-up: RFU PODN (11730768_x_at) / Fold change /veh PODN (11730768_x_at) / RFU LINC00158 (11744669_a_at) / Fold change /veh LINC00158 (11744669_a_at) / RFU DUSP10 (11751237_a_at) / Fold change /veh DUSP10 (11751237_a_at) / RFU ID3 (11757404_x_at) / Fold change /veh ID3 (11757404_x_at) / RFU PLEKHG5 (11737974_s_at) / Fold change /veh PLEKHG5 (11737974_s_at) / RFU LRRC4B (11730491_at) / Fold change /veh LRRC4B (11730491_at) / RFU GIMAP4 (11747438_a_at) / Fold change /veh GIMAP4 (11747438_a_at) / RFU KRT8 (11758183_x_at) / Fold change /veh KRT8 (11758183_x_at) / RFU CNN1 (11734310_a_at) / Fold change /veh CNN1 (11734310_a_at) / RFU VPS37D (11726825_at) / Fold change /veh VPS37D (11726825_at) / RFU C10orf10 (11716522_x_at) / Fold change /veh C10orf10 (11716522_x_at) / RFU KIR2DL2 /// KIR2DL4 /// KIR2DL5A /// KIR2DL5B /// KIR2DS1 /// KIR2DS2 /// KIR2DS3 /// KIR2DS4 /// KIR3DL3 /// KIR3DL3 /// KIR3DS1 (11738374_at) / Fold change /veh KIR2DL2 /// KIR2DL4 /// KIR2DL5A /// KIR2DL5B /// KIR2DS1 /// KIR2DS2 /// KIR2DS3 /// KIR2DS4 /// KIR3DL3 /// KIR3DL3 /// KIR3DS1 (11738374_at) / RFU C1QL1 (11718748_at) / Fold change /veh C1QL1 (11718748_at) / RFU TMPRSS4 (11747572_a_at) / Fold change /veh TMPRSS4 (11747572_a_at) / RFU HAMP (11756126_x_at) / Fold change /veh HAMP (11756126_x_at) / RFU RNFT2 (11725882_a_at) / Fold change /veh RNFT2 (11725882_a_at) / RFU NR4A2 (11747474_a_at) / Fold change /veh NR4A2 (11747474_a_at) / RFU ABCC12 (11746883_a_at) / Fold change /veh ABCC12 (11746883_a_at) / RFU TMEM136 (11760407_x_at) / Fold change /veh TMEM136 (11760407_x_at) / RFU CLDN22 /// WWC2 (11732394_at) / Fold change /veh CLDN22 /// WWC2 (11732394_at) / RFU HLA-DPB1 (11760878_x_at) / Fold change /veh HLA-DPB1 (11760878_x_at) / RFU SPINT1 (11716480_a_at) / Fold change /veh SPINT1 (11716480_a_at) / RFU GAP43 (11754022_s_at) / Fold change /veh GAP43 (11754022_s_at) / RFU A4GNT (11735810_at) / Fold change /veh A4GNT (11735810_at) / RFU PRB3 (11715151_x_at) / Fold change /veh PRB3 (11715151_x_at) / RFU TUBB4B (11761932_at) / Fold change /veh TUBB4B (11761932_at) / RFU CAPN14 (11732068_a_at) / Fold change /veh CAPN14 (11732068_a_at) / RFU TMCC2 (11721928_a_at) / Fold change /veh TMCC2 (11721928_a_at) / RFU IRGQ (11745062_a_at) / Fold change /veh IRGQ (11745062_a_at) / RFU FAM174B (11720279_a_at) / Fold change /veh FAM174B (11720279_a_at) / RFU TMPRSS4 (11748680_a_at) / Fold change /veh TMPRSS4 (11748680_a_at) / RFU FAM212B (11763350_a_at) / Fold change /veh FAM212B (11763350_a_at) / RFU PLEKHG5 (11743358_a_at) / Fold change /veh PLEKHG5 (11743358_a_at) / RFU ZSCAN30 (11745921_a_at) / Fold change /veh ZSCAN30 (11745921_a_at) / RFU CMKLR1 (11741424_a_at) / Fold change /veh CMKLR1 (11741424_a_at) / RFU LOC101060620 /// MAPK8IP1 (11723275_at) / Fold change /veh LOC101060620 /// MAPK8IP1 (11723275_at) / RFU SPTSSB (11747773_x_at) / Fold change /veh SPTSSB (11747773_x_at) / RFU PRSS12 (11739890_at) / Fold change /veh PRSS12 (11739890_at) / RFU BIN1 (11741810_x_at) / Fold change /veh BIN1 (11741810_x_at) / RFU WNT11 (11732464_a_at) / Fold change /veh WNT11 (11732464_a_at) / RFU C10orf10 (11716521_a_at) / Fold change /veh C10orf10 (11716521_a_at) / RFU C5orf56 (11738089_at) / Fold change /veh C5orf56 (11738089_at) / RFU CYB561 (11721691_x_at) / Fold change /veh CYB561 (11721691_x_at) / RFU ANKRD19P (11752326_a_at) / Fold change /veh ANKRD19P (11752326_a_at) / RFU OR2T12 /// OR2T33 /// OR2T8 (11738714_s_at) / Fold change /veh OR2T12 /// OR2T33 /// OR2T8 (11738714_s_at) / RFU VCAN (11748164_a_at) / Fold change /veh VCAN (11748164_a_at) / RFU JSRP1 (11732532_at) / Fold change /veh JSRP1 (11732532_at) / RFU KRTAP10-11 (11738290_x_at) / Fold change /veh KRTAP10-11 (11738290_x_at) / RFU MYO3A (11730013_a_at) / Fold change /veh MYO3A (11730013_a_at) / RFU EBF3 (11725865_a_at) / Fold change /veh EBF3 (11725865_a_at) / RFU CAMK2N1 (11719241_x_at) / Fold change /veh CAMK2N1 (11719241_x_at) / RFU C5orf56 (11738088_a_at) / Fold change /veh C5orf56 (11738088_a_at) / RFU OLFML3 (11715873_a_at) / Fold change /veh OLFML3 (11715873_a_at) / RFU LOC100653217 /// NTM (11731650_a_at) / Fold change /veh LOC100653217 /// NTM (11731650_a_at) / RFU MAPK11 (11762145_a_at) / Fold change /veh MAPK11 (11762145_a_at) / RFU FIZ1 (11724087_x_at) / Fold change /veh FIZ1 (11724087_x_at) / RFU OASL (11726364_x_at) / Fold change /veh OASL (11726364_x_at) / RFU SOX15 (11748057_x_at) / Fold change /veh SOX15 (11748057_x_at) / RFU CD79A (11719716_a_at) / Fold change /veh CD79A (11719716_a_at) / RFU HIST1H1D (11736915_at) / Fold change /veh HIST1H1D (11736915_at) / RFU CASKIN2 (11723855_a_at) / Fold change /veh CASKIN2 (11723855_a_at) / RFU LOC730098 (11760151_x_at) / Fold change /veh LOC730098 (11760151_x_at) / RFU OR4N2 (11742367_at) / Fold change /veh OR4N2 (11742367_at) / RFU PRRT2 (11749266_a_at) / Fold change /veh PRRT2 (11749266_a_at) / RFU SNX32 (11753110_a_at) / Fold change /veh SNX32 (11753110_a_at) / RFU CDHR5 (11726645_a_at) / Fold change /veh CDHR5 (11726645_a_at) / RFU RCAN1 (11760418_a_at) / Fold change /veh RCAN1 (11760418_a_at) / RFU FAM167A (11723789_a_at) / Fold change /veh FAM167A (11723789_a_at) / RFU FAM26E (11764081_at) / Fold change /veh FAM26E (11764081_at) / RFU ISYNA1 (11749810_s_at) / Fold change /veh ISYNA1 (11749810_s_at) / RFU ACY1 (11761880_at) / Fold change /veh ACY1 (11761880_at) / RFU 11764098_at / Fold change /veh 11764098_at / RFU SAMD14 (11745864_x_at) / Fold change /veh SAMD14 (11745864_x_at) / RFU NPB (11741838_a_at) / Fold change /veh NPB (11741838_a_at) / RFU TMPRSS6 (11731388_a_at) / Fold change /veh TMPRSS6 (11731388_a_at) / RFU KRTAP10-2 (11738614_at) / Fold change /veh KRTAP10-2 (11738614_at) / RFU ARHGAP8 /// PRR5-ARHGAP8 (11727945_x_at) / Fold change /veh ARHGAP8 /// PRR5-ARHGAP8 (11727945_x_at) / RFU KRTAP5-7 /// NADSYN1 (11734609_at) / Fold change /veh KRTAP5-7 /// NADSYN1 (11734609_at) / RFU RASL12 (11751679_a_at) / Fold change /veh RASL12 (11751679_a_at) / RFU CDKN2B (11736163_a_at) / Fold change /veh CDKN2B (11736163_a_at) / RFU PRF1 (11729649_at) / Fold change /veh PRF1 (11729649_at) / RFU, ZNF638 /// ZNF638-IT1 / Fold change vs veh, ZNF638 /// ZNF638-IT1 / RFU, PANK3 / Fold change vs veh, PANK3 / RFU, SH3YL1 / Fold change vs veh, SH3YL1 / RFU, ZEB2 / Fold change vs veh, ZEB2 / RFU, NRIP1 / Fold change vs veh, NRIP1 / RFU, PTTG1IP / Fold change vs veh, PTTG1IP / RFU, CAPN2 / Fold change vs veh, CAPN2 / RFU, MED14 / Fold change vs veh, MED14 / RFU, SNORA58 / Fold change vs veh, SNORA58 / RFU, C1orf63 / Fold change vs veh, C1orf63 / RFU, LRRFIP1 / Fold change vs veh, LRRFIP1 / RFU, NDUFAF7 / Fold change vs veh, NDUFAF7 / RFU, SLC12A2 / Fold change vs veh, SLC12A2 / RFU, IBTK / Fold change vs veh, IBTK / RFU, ESF1 / Fold change vs veh, ESF1 / Fold change vs veh, TMEM50B / RFU, TAOK1 / Fold change vs veh, TAOK1 / RFU, ACBD3 / Fold change vs veh, ACBD3 / RFU, TMA16 / Fold change vs veh, TMA16 / RFU, RWDD3 / Fold change vs veh, RWDD3 / RFU, BCAT1 / Fold change vs veh, BCAT1 / RFU, EDEM3 / Fold change vs veh, EDEM3 / RFU, TMEM33 / Fold change vs veh, TMEM33 / RFU, WDR75 / Fold change vs veh, WDR75 / RFU, AHCTF1 / Fold change vs veh, AHCTF1 / RFU, TFRC / Fold change vs veh, TFRC / RFU, ZDHHC17 / Fold change vs veh, ZDHHC17 / RFU, NOM1 / Fold change vs veh, NOM1 / RFU, ARL8B / Fold change vs veh, ARL8B / RFU, ZBTB11 / Fold change vs veh, ZBTB11 / RFU, TAMM41 / Fold change vs veh, TAMM41 / RFU, KIAA1704 /// LOC100996395 / Fold change vs veh, KIAA1704 /// LOC100996395 / RFU, ING1 / Fold change vs veh, ING1 / RFU, TRMT61B / Fold change vs veh, TRMT61B / RFU, FUBP3 / Fold change vs veh, FUBP3 / RFU, TP53 / Fold change vs veh, TP53 / RFU, TNKS2 / Fold change vs veh, TNKS2 / RFU, ZFP14 / Fold change vs veh, ZFP14 / RFU, ACTR2 / Fold change vs veh, ACTR2 / RFU, PPP3R1 / Fold change vs veh, PPP3R1 / RFU, PIK3R1 / Fold change vs veh, PIK3R1 / RFU, HNRNPA1 / Fold change vs veh, HNRNPA1 / RFU, RNF170 / Fold change vs veh, RNF170 / RFU, ZNF28 / Fold change vs veh, ZNF28 / RFU, RNGTT / Fold change vs veh, RNGTT / RFU, OGT / Fold change vs veh, OGT / RFU, BRD1 / Fold change vs veh, BRD1 / RFU, MARS / Fold change vs veh, MARS / RFU, ZNF655 / Fold change vs veh, ZNF655 / RFU, FAHD1 / Fold change vs veh, FAHD1 / RFU, BDP1 / Fold change vs veh, BDP1 / RFU, LRRCC1 / Fold change vs veh, LRRCC1 / RFU, ARID1A / Fold change vs veh, ARID1A / RFU, ZNF146 / Fold change vs veh, ZNF146 / RFU, ZNF330 / Fold change vs veh, ZNF330 / RFU, GPN3 / Fold change vs veh, GPN3 / RFU, C9orf123 / Fold change vs veh, C9orf123 / RFU, N4BP2L2 / Fold change vs veh, N4BP2L2 / RFU, ARFIP1 / Fold change vs veh, ARFIP1 / RFU, FAM179B / Fold change vs veh, FAM179B / RFU, BCL10 / Fold change vs veh, BCL10 / RFU, UHRF1BP1L / Fold change vs veh, UHRF1BP1L / RFU, BET1 / Fold change vs veh, BET1 / RFU, CNOT2 / Fold change vs veh, CNOT2 / RFU, ZNF268 / Fold change vs veh, ZNF268 / Fold change vs veh, ZNF507 / RFU, DGCR2 / Fold change vs veh, DGCR2 / RFU, WDSUB1 / Fold change vs veh, WDSUB1 / Fold change vs veh, HSP90B1 /// MIR3652 / RFU, ADSS / Fold change vs veh, ADSS / RFU, GK / Fold change vs veh, GK / RFU, ZNF148 / Fold change vs veh, ZNF148 / RFU, TAF9 / Fold change vs veh, TAF9 / RFU, SLC1A5 / Fold change vs veh, SLC1A5 / RFU, SLMO2 / Fold change vs veh, SLMO2 / RFU, ABCC4 / Fold change vs veh, ABCC4 / RFU, LOC101060439 /// RAP1B / Fold change vs veh, LOC101060439 /// RAP1B / RFU, RFX7 / Fold change vs veh, RFX7 / RFU, GTPBP10 / Fold change vs veh, GTPBP10 / RFU, CNEP1R1 / Fold change vs veh, CNEP1R1 / RFU, BIVM-ERCC5 /// ERCC5 / Fold change vs veh, BIVM-ERCC5 /// ERCC5 / RFU, ILF3 / Fold change vs veh, ILF3 / RFU 11762660_at / Fold change /veh 11762660_at / RFU VCAN (11757783_s_at) / Fold change /veh VCAN (11757783_s_at) / RFU DDX43 (11728927_at) / Fold change /veh DDX43 (11728927_at) / RFU KRT8 (11758188_x_at) / Fold change /veh KRT8 (11758188_x_at) / RFU NKD1 (11759106_at) / Fold change /veh NKD1 (11759106_at) / RFU SRD5A1 (11742802_a_at) / Fold change /veh SRD5A1 (11742802_a_at) / RFU TPSAB1 /// TPSB2 (11721975_s_at) / Fold change /veh TPSAB1 /// TPSB2 (11721975_s_at) / RFU GSTM3 (11746129_a_at) / Fold change /veh GSTM3 (11746129_a_at) / RFU IL23R (11737362_x_at) / Fold change /veh IL23R (11737362_x_at) / RFU TMEM51 (11727254_a_at) / Fold change /veh TMEM51 (11727254_a_at) / RFU PIWIL2 (11732686_x_at) / Fold change /veh PIWIL2 (11732686_x_at) / RFU ORM1 (11744905_x_at) / Fold change /veh ORM1 (11744905_x_at) / RFU CCDC152 (11743942_at) / Fold change /veh CCDC152 (11743942_at) / RFU ECM1 (11717891_a_at) / Fold change /veh ECM1 (11717891_a_at) / RFU IL23R (11748794_a_at) / Fold change /veh IL23R (11748794_a_at) / RFU TNFAIP8L3 (11732012_x_at) / Fold change /veh TNFAIP8L3 (11732012_x_at) / RFU MBOAT4 (11741988_at) / Fold change /veh MBOAT4 (11741988_at) / RFU 11764193_at / Fold change /veh 11764193_at / RFU TMEM53 (11763286_at) / Fold change /veh TMEM53 (11763286_at) / RFU MAGEB2 (11727129_at) / Fold change /veh MAGEB2 (11727129_at) / RFU TMEM200A (11744735_a_at) / Fold change /veh TMEM200A (11744735_a_at) / RFU CCDC152 (11751479_a_at) / Fold change /veh CCDC152 (11751479_a_at) / RFU FAM211A (11726209_a_at) / Fold change /veh FAM211A (11726209_a_at) / RFU RGS16 (11746705_a_at) / Fold change /veh RGS16 (11746705_a_at) / RFU VCAN (11755009_s_at) / Fold change /veh VCAN (11755009_s_at) / RFU RHOB (11743442_s_at) / Fold change /veh RHOB (11743442_s_at) / RFU RGS16 (11720943_a_at) / Fold change /veh RGS16 (11720943_a_at) / RFU RGS16 (11720944_at) / Fold change /veh RGS16 (11720944_at) / RFU, VPS4B / Fold change vs veh, VPS4B / RFU, CREB1 / Fold change vs veh, CREB1 / RFU, DNAJC13 / Fold change vs veh, DNAJC13 / RFU, GNAQ / Fold change vs veh, GNAQ / RFU, CDK5R1 / Fold change vs veh, CDK5R1 / RFU, ZRANB3 / Fold change vs veh, ZRANB3 / RFU, CUL4A / Fold change vs veh, CUL4A / RFU, CCNY / Fold change vs veh, CCNY / RFU, UFL1 / Fold change vs veh, UFL1 / RFU, COG3 / Fold change vs veh, COG3 / RFU, DIAPH2 / Fold change vs veh, DIAPH2 / RFU, SKA2 / Fold change vs veh, SKA2 / RFU, AFF3 / Fold change vs veh, AFF3 / RFU, LMF1 / Fold change vs veh, LMF1 / RFU, IPO11 / Fold change vs veh, IPO11 / RFU, DFFB / Fold change vs veh, DFFB / RFU, FOXP1 / Fold change vs veh, FOXP1 / RFU, CARD8 / Fold change vs veh, CARD8 / RFU, STRN3 / Fold change vs veh, STRN3 / RFU, ADK / Fold change vs veh, ADK / RFU, RASSF2 / Fold change vs veh, RASSF2 / RFU, WIPF1 / Fold change vs veh, WIPF1 / RFU, LARP1B / Fold change vs veh, LARP1B / RFU, RASA1 / Fold change vs veh, RASA1 / RFU, RB1 / Fold change vs veh, RB1 / RFU, PPFIA1 / Fold change vs veh, PPFIA1 / RFU, MAT2A / Fold change vs veh, MAT2A / RFU, CCT5 / Fold change vs veh, CCT5 / RFU, WDR92 / Fold change vs veh, WDR92 / RFU, CUX1 / Fold change vs veh, CUX1 / RFU, TTC7A / Fold change vs veh, TTC7A / RFU, TMEM135 / Fold change vs veh, TMEM135 / RFU, DEPTOR / Fold change vs veh, DEPTOR / RFU, CPM / Fold change vs veh, CPM / RFU, DNAJB6 / Fold change vs veh, DNAJB6 / RFU, CACNA2D3 / Fold change vs veh, CACNA2D3 / RFU, DTX4 / Fold change vs veh, DTX4 / RFU, TFCP2 / Fold change vs veh, TFCP2 / RFU, GMCL1 /// GMCL1P1 / Fold change vs veh, GMCL1 /// GMCL1P1 / RFU, AEBP2 / Fold change vs veh, AEBP2 / RFU, SNHG1 /// SNORD22 /// SNORD25 /// SNORD26 /// SNORD27 /// SNORD28 /// SNORD29 /// SNORD31 / Fold change vs veh, SNHG1 /// SNORD22 /// SNORD25 /// SNORD26 /// SNORD27 /// SNORD28 /// SNORD29 /// SNORD31 / Fold change (Aza/veh), C12orf56 (ProbeSet 11735607_a_at) / Fold change (ACY-1035/veh), C12orf56 (ProbeSet 11735607_a_at) / Fold change (Aza/veh), FGFR1OP (ProbeSet 11751329_s_at) / Fold change (ACY-1035/veh), FGFR1OP (ProbeSet 11751329_s_at) / Fold change (Aza/veh), VPS36 (ProbeSet 11739960_a_at) / Fold change (ACY-1035/veh), VPS36 (ProbeSet 11739960_a_at) / RFU SYPL1 (11715823_x_at) / Fold change /veh SYPL1 (11715823_x_at) / RFU IGFBP7 (11715501_s_at) / Fold change /veh IGFBP7 (11715501_s_at) / RFU REEP3 (11722064_at) / Fold change /veh REEP3 (11722064_at) / RFU IGLL1 (11728026_x_at) / Fold change /veh IGLL1 (11728026_x_at): dose or concentration left out as unconfirmed
Conditions: MV-4-11 cells, 48 hours

Nc1ccc(-c2cccs2)cc1NC(=O)c1ccc2c(c1)cc(C1CC1)n2CCN1CCOCC1 [ACY-1035]
Fold change /veh 11764193_at: 1.19
